The subject of the test is MV-4-11 cells. The test is described as follows: Gene expression microarray analysis (Affymetrix PrimeView) and GSEA. It counts as cell-based, human. Further details: RFU PODN (11730768_x_at) / Fold change /veh PODN (11730768_x_at) / RFU LINC00158 (11744669_a_at) / Fold change /veh LINC00158 (11744669_a_at) / RFU DUSP10 (11751237_a_at) / Fold change /veh DUSP10 (11751237_a_at) / RFU ID3 (11757404_x_at) / Fold change /veh ID3 (11757404_x_at) / RFU PLEKHG5 (11737974_s_at) / Fold change /veh PLEKHG5 (11737974_s_at) / RFU LRRC4B (11730491_at) / Fold change /veh LRRC4B (11730491_at) / RFU GIMAP4 (11747438_a_at) / Fold change /veh GIMAP4 (11747438_a_at) / RFU KRT8 (11758183_x_at) / Fold change /veh KRT8 (11758183_x_at) / RFU CNN1 (11734310_a_at) / Fold change /veh CNN1 (11734310_a_at) / RFU VPS37D (11726825_at) / Fold change /veh VPS37D (11726825_at) / RFU C10orf10 (11716522_x_at) / Fold change /veh C10orf10 (11716522_x_at) / RFU KIR2DL2 /// KIR2DL4 /// KIR2DL5A /// KIR2DL5B /// KIR2DS1 /// KIR2DS2 /// KIR2DS3 /// KIR2DS4 /// KIR3DL3 /// KIR3DL3 /// KIR3DS1 (11738374_at) / Fold change /veh KIR2DL2 /// KIR2DL4 /// KIR2DL5A /// KIR2DL5B /// KIR2DS1 /// KIR2DS2 /// KIR2DS3 /// KIR2DS4 /// KIR3DL3 /// KIR3DL3 /// KIR3DS1 (11738374_at) / RFU C1QL1 (11718748_at) / Fold change /veh C1QL1 (11718748_at) / RFU TMPRSS4 (11747572_a_at) / Fold change /veh TMPRSS4 (11747572_a_at) / RFU HAMP (11756126_x_at) / Fold change /veh HAMP (11756126_x_at) / RFU RNFT2 (11725882_a_at) / Fold change /veh RNFT2 (11725882_a_at) / RFU NR4A2 (11747474_a_at) / Fold change /veh NR4A2 (11747474_a_at) / RFU ABCC12 (11746883_a_at) / Fold change /veh ABCC12 (11746883_a_at) / RFU TMEM136 (11760407_x_at) / Fold change /veh TMEM136 (11760407_x_at) / RFU CLDN22 /// WWC2 (11732394_at) / Fold change /veh CLDN22 /// WWC2 (11732394_at) / RFU HLA-DPB1 (11760878_x_at) / Fold change /veh HLA-DPB1 (11760878_x_at) / RFU SPINT1 (11716480_a_at) / Fold change /veh SPINT1 (11716480_a_at) / RFU GAP43 (11754022_s_at) / Fold change /veh GAP43 (11754022_s_at) / RFU A4GNT (11735810_at) / Fold change /veh A4GNT (11735810_at) / RFU PRB3 (11715151_x_at) / Fold change /veh PRB3 (11715151_x_at) / RFU TUBB4B (11761932_at) / Fold change /veh TUBB4B (11761932_at) / RFU CAPN14 (11732068_a_at) / Fold change /veh CAPN14 (11732068_a_at) / RFU TMCC2 (11721928_a_at) / Fold change /veh TMCC2 (11721928_a_at) / RFU IRGQ (11745062_a_at) / Fold change /veh IRGQ (11745062_a_at) / RFU FAM174B (11720279_a_at) / Fold change /veh FAM174B (11720279_a_at) / RFU TMPRSS4 (11748680_a_at) / Fold change /veh TMPRSS4 (11748680_a_at) / RFU FAM212B (11763350_a_at) / Fold change /veh FAM212B (11763350_a_at) / RFU PLEKHG5 (11743358_a_at) / Fold change /veh PLEKHG5 (11743358_a_at) / RFU ZSCAN30 (11745921_a_at) / Fold change /veh ZSCAN30 (11745921_a_at) / RFU CMKLR1 (11741424_a_at) / Fold change /veh CMKLR1 (11741424_a_at) / RFU LOC101060620 /// MAPK8IP1 (11723275_at) / Fold change /veh LOC101060620 /// MAPK8IP1 (11723275_at) / RFU SPTSSB (11747773_x_at) / Fold change /veh SPTSSB (11747773_x_at) / RFU PRSS12 (11739890_at) / Fold change /veh PRSS12 (11739890_at) / RFU BIN1 (11741810_x_at) / Fold change /veh BIN1 (11741810_x_at) / RFU WNT11 (11732464_a_at) / Fold change /veh WNT11 (11732464_a_at) / RFU C10orf10 (11716521_a_at) / Fold change /veh C10orf10 (11716521_a_at) / RFU C5orf56 (11738089_at) / Fold change /veh C5orf56 (11738089_at) / RFU CYB561 (11721691_x_at) / Fold change /veh CYB561 (11721691_x_at) / RFU ANKRD19P (11752326_a_at) / Fold change /veh ANKRD19P (11752326_a_at) / RFU OR2T12 /// OR2T33 /// OR2T8 (11738714_s_at) / Fold change /veh OR2T12 /// OR2T33 /// OR2T8 (11738714_s_at) / RFU VCAN (11748164_a_at) / Fold change /veh VCAN (11748164_a_at) / RFU JSRP1 (11732532_at) / Fold change /veh JSRP1 (11732532_at) / RFU KRTAP10-11 (11738290_x_at) / Fold change /veh KRTAP10-11 (11738290_x_at) / RFU MYO3A (11730013_a_at) / Fold change /veh MYO3A (11730013_a_at) / RFU EBF3 (11725865_a_at) / Fold change /veh EBF3 (11725865_a_at) / RFU CAMK2N1 (11719241_x_at) / Fold change /veh CAMK2N1 (11719241_x_at) / RFU C5orf56 (11738088_a_at) / Fold change /veh C5orf56 (11738088_a_at) / RFU OLFML3 (11715873_a_at) / Fold change /veh OLFML3 (11715873_a_at) / RFU LOC100653217 /// NTM (11731650_a_at) / Fold change /veh LOC100653217 /// NTM (11731650_a_at) / RFU MAPK11 (11762145_a_at) / Fold change /veh MAPK11 (11762145_a_at) / RFU FIZ1 (11724087_x_at) / Fold change /veh FIZ1 (11724087_x_at) / RFU OASL (11726364_x_at) / Fold change /veh OASL (11726364_x_at) / RFU SOX15 (11748057_x_at) / Fold change /veh SOX15 (11748057_x_at) / RFU CD79A (11719716_a_at) / Fold change /veh CD79A (11719716_a_at) / RFU HIST1H1D (11736915_at) / Fold change /veh HIST1H1D (11736915_at) / RFU CASKIN2 (11723855_a_at) / Fold change /veh CASKIN2 (11723855_a_at) / RFU LOC730098 (11760151_x_at) / Fold change /veh LOC730098 (11760151_x_at) / RFU OR4N2 (11742367_at) / Fold change /veh OR4N2 (11742367_at) / RFU PRRT2 (11749266_a_at) / Fold change /veh PRRT2 (11749266_a_at) / RFU SNX32 (11753110_a_at) / Fold change /veh SNX32 (11753110_a_at) / RFU CDHR5 (11726645_a_at) / Fold change /veh CDHR5 (11726645_a_at) / RFU RCAN1 (11760418_a_at) / Fold change /veh RCAN1 (11760418_a_at) / RFU FAM167A (11723789_a_at) / Fold change /veh FAM167A (11723789_a_at) / RFU FAM26E (11764081_at) / Fold change /veh FAM26E (11764081_at) / RFU ISYNA1 (11749810_s_at) / Fold change /veh ISYNA1 (11749810_s_at) / RFU ACY1 (11761880_at) / Fold change /veh ACY1 (11761880_at) / RFU 11764098_at / Fold change /veh 11764098_at / RFU SAMD14 (11745864_x_at) / Fold change /veh SAMD14 (11745864_x_at) / RFU NPB (11741838_a_at) / Fold change /veh NPB (11741838_a_at) / RFU TMPRSS6 (11731388_a_at) / Fold change /veh TMPRSS6 (11731388_a_at) / RFU KRTAP10-2 (11738614_at) / Fold change /veh KRTAP10-2 (11738614_at) / RFU ARHGAP8 /// PRR5-ARHGAP8 (11727945_x_at) / Fold change /veh ARHGAP8 /// PRR5-ARHGAP8 (11727945_x_at) / RFU KRTAP5-7 /// NADSYN1 (11734609_at) / Fold change /veh KRTAP5-7 /// NADSYN1 (11734609_at) / RFU RASL12 (11751679_a_at) / Fold change /veh RASL12 (11751679_a_at) / RFU CDKN2B (11736163_a_at) / Fold change /veh CDKN2B (11736163_a_at) / RFU PRF1 (11729649_at) / Fold change /veh PRF1 (11729649_at) / RFU, ZNF638 /// ZNF638-IT1 / Fold change vs veh, ZNF638 /// ZNF638-IT1 / RFU, PANK3 / Fold change vs veh, PANK3 / RFU, SH3YL1 / Fold change vs veh, SH3YL1 / RFU, ZEB2 / Fold change vs veh, ZEB2 / RFU, NRIP1 / Fold change vs veh, NRIP1 / RFU, PTTG1IP / Fold change vs veh, PTTG1IP / RFU, CAPN2 / Fold change vs veh, CAPN2 / RFU, MED14 / Fold change vs veh, MED14 / RFU, SNORA58 / Fold change vs veh, SNORA58 / RFU, C1orf63 / Fold change vs veh, C1orf63 / RFU, LRRFIP1 / Fold change vs veh, LRRFIP1 / RFU, NDUFAF7 / Fold change vs veh, NDUFAF7 / RFU, SLC12A2 / Fold change vs veh, SLC12A2 / RFU, IBTK / Fold change vs veh, IBTK / RFU, ESF1 / Fold change vs veh, ESF1 / Fold change vs veh, TMEM50B / RFU, TAOK1 / Fold change vs veh, TAOK1 / RFU, ACBD3 / Fold change vs veh, ACBD3 / RFU, TMA16 / Fold change vs veh, TMA16 / RFU, RWDD3 / Fold change vs veh, RWDD3 / RFU, BCAT1 / Fold change vs veh, BCAT1 / RFU, EDEM3 / Fold change vs veh, EDEM3 / RFU, TMEM33 / Fold change vs veh, TMEM33 / RFU, WDR75 / Fold change vs veh, WDR75 / RFU, AHCTF1 / Fold change vs veh, AHCTF1 / RFU, TFRC / Fold change vs veh, TFRC / RFU, ZDHHC17 / Fold change vs veh, ZDHHC17 / RFU, NOM1 / Fold change vs veh, NOM1 / RFU, ARL8B / Fold change vs veh, ARL8B / RFU, ZBTB11 / Fold change vs veh, ZBTB11 / RFU, TAMM41 / Fold change vs veh, TAMM41 / RFU, KIAA1704 /// LOC100996395 / Fold change vs veh, KIAA1704 /// LOC100996395 / RFU, ING1 / Fold change vs veh, ING1 / RFU, TRMT61B / Fold change vs veh, TRMT61B / RFU, FUBP3 / Fold change vs veh, FUBP3 / RFU, TP53 / Fold change vs veh, TP53 / RFU, TNKS2 / Fold change vs veh, TNKS2 / RFU, ZFP14 / Fold change vs veh, ZFP14 / RFU, ACTR2 / Fold change vs veh, ACTR2 / RFU, PPP3R1 / Fold change vs veh, PPP3R1 / RFU, PIK3R1 / Fold change vs veh, PIK3R1 / RFU, HNRNPA1 / Fold change vs veh, HNRNPA1 / RFU, RNF170 / Fold change vs veh, RNF170 / RFU, ZNF28 / Fold change vs veh, ZNF28 / RFU, RNGTT / Fold change vs veh, RNGTT / RFU, OGT / Fold change vs veh, OGT / RFU, BRD1 / Fold change vs veh, BRD1 / RFU, MARS / Fold change vs veh, MARS / RFU, ZNF655 / Fold change vs veh, ZNF655 / RFU, FAHD1 / Fold change vs veh, FAHD1 / RFU, BDP1 / Fold change vs veh, BDP1 / RFU, LRRCC1 / Fold change vs veh, LRRCC1 / RFU, ARID1A / Fold change vs veh, ARID1A / RFU, ZNF146 / Fold change vs veh, ZNF146 / RFU, ZNF330 / Fold change vs veh, ZNF330 / RFU, GPN3 / Fold change vs veh, GPN3 / RFU, C9orf123 / Fold change vs veh, C9orf123 / RFU, N4BP2L2 / Fold change vs veh, N4BP2L2 / RFU, ARFIP1 / Fold change vs veh, ARFIP1 / RFU, FAM179B / Fold change vs veh, FAM179B / RFU, BCL10 / Fold change vs veh, BCL10 / RFU, UHRF1BP1L / Fold change vs veh, UHRF1BP1L / RFU, BET1 / Fold change vs veh, BET1 / RFU, CNOT2 / Fold change vs veh, CNOT2 / RFU, ZNF268 / Fold change vs veh, ZNF268 / Fold change vs veh, ZNF507 / RFU, DGCR2 / Fold change vs veh, DGCR2 / RFU, WDSUB1 / Fold change vs veh, WDSUB1 / Fold change vs veh, HSP90B1 /// MIR3652 / RFU, ADSS / Fold change vs veh, ADSS / RFU, GK / Fold change vs veh, GK / RFU, ZNF148 / Fold change vs veh, ZNF148 / RFU, TAF9 / Fold change vs veh, TAF9 / RFU, SLC1A5 / Fold change vs veh, SLC1A5 / RFU, SLMO2 / Fold change vs veh, SLMO2 / RFU, ABCC4 / Fold change vs veh, ABCC4 / RFU, LOC101060439 /// RAP1B / Fold change vs veh, LOC101060439 /// RAP1B / RFU, RFX7 / Fold change vs veh, RFX7 / RFU, GTPBP10 / Fold change vs veh, GTPBP10 / RFU, CNEP1R1 / Fold change vs veh, CNEP1R1 / RFU, BIVM-ERCC5 /// ERCC5 / Fold change vs veh, BIVM-ERCC5 /// ERCC5 / RFU, ILF3 / Fold change vs veh, ILF3 / RFU 11762660_at / Fold change /veh 11762660_at / RFU VCAN (11757783_s_at) / Fold change /veh VCAN (11757783_s_at) / RFU DDX43 (11728927_at) / Fold change /veh DDX43 (11728927_at) / RFU KRT8 (11758188_x_at) / Fold change /veh KRT8 (11758188_x_at) / RFU NKD1 (11759106_at) / Fold change /veh NKD1 (11759106_at) / RFU SRD5A1 (11742802_a_at) / Fold change /veh SRD5A1 (11742802_a_at) / RFU TPSAB1 /// TPSB2 (11721975_s_at) / Fold change /veh TPSAB1 /// TPSB2 (11721975_s_at) / RFU GSTM3 (11746129_a_at) / Fold change /veh GSTM3 (11746129_a_at) / RFU IL23R (11737362_x_at) / Fold change /veh IL23R (11737362_x_at) / RFU TMEM51 (11727254_a_at) / Fold change /veh TMEM51 (11727254_a_at) / RFU PIWIL2 (11732686_x_at) / Fold change /veh PIWIL2 (11732686_x_at) / RFU ORM1 (11744905_x_at) / Fold change /veh ORM1 (11744905_x_at) / RFU CCDC152 (11743942_at) / Fold change /veh CCDC152 (11743942_at) / RFU ECM1 (11717891_a_at) / Fold change /veh ECM1 (11717891_a_at) / RFU IL23R (11748794_a_at) / Fold change /veh IL23R (11748794_a_at) / RFU TNFAIP8L3 (11732012_x_at) / Fold change /veh TNFAIP8L3 (11732012_x_at) / RFU MBOAT4 (11741988_at) / Fold change /veh MBOAT4 (11741988_at) / RFU 11764193_at / Fold change /veh 11764193_at / RFU TMEM53 (11763286_at) / Fold change /veh TMEM53 (11763286_at) / RFU MAGEB2 (11727129_at) / Fold change /veh MAGEB2 (11727129_at) / RFU TMEM200A (11744735_a_at) / Fold change /veh TMEM200A (11744735_a_at) / RFU CCDC152 (11751479_a_at) / Fold change /veh CCDC152 (11751479_a_at) / RFU FAM211A (11726209_a_at) / Fold change /veh FAM211A (11726209_a_at) / RFU RGS16 (11746705_a_at) / Fold change /veh RGS16 (11746705_a_at) / RFU VCAN (11755009_s_at) / Fold change /veh VCAN (11755009_s_at) / RFU RHOB (11743442_s_at) / Fold change /veh RHOB (11743442_s_at) / RFU RGS16 (11720943_a_at) / Fold change /veh RGS16 (11720943_a_at) / RFU RGS16 (11720944_at) / Fold change /veh RGS16 (11720944_at) / RFU, VPS4B / Fold change vs veh, VPS4B / RFU, CREB1 / Fold change vs veh, CREB1 / RFU, DNAJC13 / Fold change vs veh, DNAJC13 / RFU, GNAQ / Fold change vs veh, GNAQ / RFU, CDK5R1 / Fold change vs veh, CDK5R1 / RFU, ZRANB3 / Fold change vs veh, ZRANB3 / RFU, CUL4A / Fold change vs veh, CUL4A / RFU, CCNY / Fold change vs veh, CCNY / RFU, UFL1 / Fold change vs veh, UFL1 / RFU, COG3 / Fold change vs veh, COG3 / RFU, DIAPH2 / Fold change vs veh, DIAPH2 / RFU, SKA2 / Fold change vs veh, SKA2 / RFU, AFF3 / Fold change vs veh, AFF3 / RFU, LMF1 / Fold change vs veh, LMF1 / RFU, IPO11 / Fold change vs veh, IPO11 / RFU, DFFB / Fold change vs veh, DFFB / RFU, FOXP1 / Fold change vs veh, FOXP1 / RFU, CARD8 / Fold change vs veh, CARD8 / RFU, STRN3 / Fold change vs veh, STRN3 / RFU, ADK / Fold change vs veh, ADK / RFU, RASSF2 / Fold change vs veh, RASSF2 / RFU, WIPF1 / Fold change vs veh, WIPF1 / RFU, LARP1B / Fold change vs veh, LARP1B / RFU, RASA1 / Fold change vs veh, RASA1 / RFU, RB1 / Fold change vs veh, RB1 / RFU, PPFIA1 / Fold change vs veh, PPFIA1 / RFU, MAT2A / Fold change vs veh, MAT2A / RFU, CCT5 / Fold change vs veh, CCT5 / RFU, WDR92 / Fold change vs veh, WDR92 / RFU, CUX1 / Fold change vs veh, CUX1 / RFU, TTC7A / Fold change vs veh, TTC7A / RFU, TMEM135 / Fold change vs veh, TMEM135 / RFU, DEPTOR / Fold change vs veh, DEPTOR / RFU, CPM / Fold change vs veh, CPM / RFU, DNAJB6 / Fold change vs veh, DNAJB6 / RFU, CACNA2D3 / Fold change vs veh, CACNA2D3 / RFU, DTX4 / Fold change vs veh, DTX4 / RFU, TFCP2 / Fold change vs veh, TFCP2 / RFU, GMCL1 /// GMCL1P1 / Fold change vs veh, GMCL1 /// GMCL1P1 / RFU, AEBP2 / Fold change vs veh, AEBP2 / RFU, SNHG1 /// SNORD22 /// SNORD25 /// SNORD26 /// SNORD27 /// SNORD28 /// SNORD29 /// SNORD31 / Fold change vs veh, SNHG1 /// SNORD22 /// SNORD25 /// SNORD26 /// SNORD27 /// SNORD28 /// SNORD29 /// SNORD31 / Fold change (Aza/veh), C12orf56 (ProbeSet 11735607_a_at) / Fold change (ACY-1035/veh), C12orf56 (ProbeSet 11735607_a_at) / Fold change (Aza/veh), FGFR1OP (ProbeSet 11751329_s_at) / Fold change (ACY-1035/veh), FGFR1OP (ProbeSet 11751329_s_at) / Fold change (Aza/veh), VPS36 (ProbeSet 11739960_a_at) / Fold change (ACY-1035/veh), VPS36 (ProbeSet 11739960_a_at) / RFU SYPL1 (11715823_x_at) / Fold change /veh SYPL1 (11715823_x_at) / RFU IGFBP7 (11715501_s_at) / Fold change /veh IGFBP7 (11715501_s_at) / RFU REEP3 (11722064_at) / Fold change /veh REEP3 (11722064_at) / RFU IGLL1 (11728026_x_at) / Fold change /veh IGLL1 (11728026_x_at): dose or concentration left out as unconfirmed. The conditions noted are these: MV-4-11 cells, 48 hours.

Each structure is given as a SMILES string.

For the compound `Nc1ncn([C@@H]2O[C@H](CO)[C@@H](O)[C@H]2O)c(=O)n1` [azacitidine], the “RFU LOC730098 (11760151_x_at)” value worked out at 36.57 RFU.
